Assays:
Na^+,K^+ -ATPase [1] = biological target: T1, Na^+,K^+ -ATPase (Canis lupus familiaris, UniProt P50997); assay: displacement of the specific 3H-ouabain binding from the purified Na+,K+-ATPase receptor
T1 construct: Na^+,K^+ -ATPase receptor purified according to Jorghensen; from tissue
Text: (§1) To test the affinity for the receptor site of the Na^+,K^+ -ATPase and the agonist or antagonist activity on the enzyme, the following tests were used:
a) displacement of the specific ^3 H-ouabain binding from the Na^+,K^+ -ATPase receptor purified according to Jorghensen (Jorghensen P., BBA. 1974, 356, 36) and Erdmann (Erdmann E. et al., Arzneim. Forsh., 1984, 34, 1314);

Na^+,K^+ -ATPase [2] = biological target: T1, Na^+,K^+ -ATPase; assay: inhibition of the activity of the purified Na+,K+-ATPase (% hydrolysis of 32P-ATP); format: biochemical
Text: as §1
b) inhibition of the activity of the purified Na^+,K^+ -ATPase measured as % of hydrolysis of ^32 P-ATP in presence and in absence of the tested compound (Doucet A. et al. Am. J. Physiol., 1986, 251, F851)

[3] = 3H-ouabain displacement, purified Na+,K+-ATPase, read-out: Binding ^3 H-Ouab. Displacement log IC50 (converted)
[4] = purified Na+,K+-ATPase, 32P-ATP hydrolysis, read-out: Inhibitory Activity log IC50 (converted)

| Structure (SMILES) | IC50 (Na^+,K^+ -ATPase [1]; [3]) | IC50 (Na^+,K^+ -ATPase [2]; [4]) | IC50 (Na^+,K^+ -ATPase [2]) | IC50 (Na^+,K^+ -ATPase [1]) |
| --- | --- | --- | --- | --- |
| CC(/C=N/NC1=NCCN1)=C\[C@H]1CC[C@]2(O)[C@@H]3CC[C@@H]4C[C@@H](O)CC[C@]4(C)[C@H]3CC[C@]12C [Comp. I-ab, (E,E)-17β-[3-(2-Imidazolin-2-yl)hydrazono-2-methyl-1-propenyl]-5β-androstane-3β,14β-diol] | 63.1 nM | 3160 nM | – | – |
| CC(/C=N/NC1=NCCN1C)=C\[C@H]1CC[C@]2(O)[C@@H]3CC[C@@H]4C[C@@H](O)CC[C@]4(C)[C@H]3CC[C@]12C [Comp. I-ac, (E,E)-17β-[3-(1-Methyl-2-imidazolin-2-yl)hydrazono-2-methyl-1-propenyl]-5β-androstane-3β,14β-diol] | 316 nM | – | 3980 nM | – |
| CC(/C=N/NC1=NCCCN1)=C\[C@H]1CC[C@]2(O)[C@@H]3CC[C@@H]4C[C@@H](O)CC[C@]4(C)[C@H]3CC[C@]12C [Comp. I-ad, (E,E)-17β-[3-(1,4,5,6-Tetrahydro-2-pyrimidinyl)hydrazono-2-methyl-1-propenyl]-5β-androstane-3β,14β-diol] | 63.1 nM | – | 2510 nM | – |
| CC(/C=N/NC(=N)NCCN(C)C)=C\[C@H]1CC[C@]2(O)[C@@H]3CC[C@@H]4C[C@@H](O)CC[C@]4(C)[C@H]3CC[C@]12C [Comp. I-ae, (E,E)-17β-{3-[3-(2-Dimethylaminoethyl)guanidinoimino]-2-methyl-1-propenyl}-5β-androstane-3β,14β-diol] | – | – | 6310 nM | 501 nM |
| CC(/C=N/OCCCN)=C\[C@H]1CC[C@]2(O)[C@@H]3CC[C@@H]4C[C@@H](O)CC[C@]4(C)[C@H]3CC[C@]12C [Comp. I-ag] | 25.1 nM | 50.1 nM | – | – |
| CC(/C=N/OCCN(C)C)=C\[C@H]1CC[C@]2(O)[C@@H]3CC[C@@H]4C[C@@H](O)CC[C@]4(C)[C@H]3CC[C@]12C [Comp. I-ah, (E,E)-17β-[3-(2-Dimethylaminoethoxyimino)-2-methyl-1-propenyl]-5β-androstane-3β,14β-diol] | 20 nM | 63.1 nM | – | – |
| CC(/C=N/OCCCN(C)C)=C\[C@H]1CC[C@]2(O)[C@@H]3CC[C@@H]4C[C@@H](O)CC[C@]4(C)[C@H]3CC[C@]12C [Comp. I-ai, (E,E)-17β-[3-(3-Dimethylaminopropoxyimino)-2-methyl-1-propenyl]-5β-androstane-3β,14β-diol] | 31.6 nM | 63.1 nM | – | – |
| CC(/C=N/OCCNC(=N)N)=C\[C@H]1CC[C@]2(O)[C@@H]3CC[C@@H]4C[C@@H](O)CC[C@]4(C)[C@H]3CC[C@]12C [Comp. I-aj, (E,E)-17β-[3-(2-Guanidinoethoxyimino)-2-methyl-1-propenyl]-5β-androstane-3β,14β-diol] | – | 126 nM | – | 50.1 nM |
| CC(/C=N/OCCCNC(=N)N)=C\[C@H]1CC[C@]2(O)[C@@H]3CC[C@@H]4C[C@@H](O)CC[C@]4(C)[C@H]3CC[C@]12C [Comp. I-ak, (E,E)-17β-[3-(3-Guanidinopropoxyimino)-2-methyl-1-propenyl]-5β-androstane-3β,14β-diol] | 63.1 nM | – | 200 nM | – |
| CCC(/C=N/NC(=N)N)=C\[C@H]1CC[C@]2(O)[C@@H]3CC[C@@H]4C[C@@H](O)CC[C@]4(C)[C@H]3CC[C@]12C [Comp. I-al, (E,E)-17β-(3-Guanidinoimino-2-ethyl-1-propenyl)-5β-androstane-3β,14β-diol] | – | – | 1000 nM | 126 nM |
| CCC(/C=N/OCCN)=C\[C@H]1CC[C@]2(O)[C@@H]3CC[C@@H]4C[C@@H](O)CC[C@]4(C)[C@H]3CC[C@]12C [Comp. I-am, (E,E)-17β-[3-(2-Aminoethoxyimino)-2-ethyl-1-propenyl]-5β-androstane-3β,14β-diol] | 63.1 nM | 126 nM | – | – |
| CCC(/C=N/OCCCN)=C\[C@H]1CC[C@]2(O)[C@@H]3CC[C@@H]4C[C@@H](O)CC[C@]4(C)[C@H]3CC[C@]12C [Comp. I-an, (E,E)-17β-[3-(3-Aminopropoxyimino)-2-ethyl-1-propenyl]-5β-androstane-3β,14β-diol] | – | 316 nM | – | 100 nM |
| CCC(/C=N/OCCN(C)C)=C\[C@H]1CC[C@]2(O)[C@@H]3CC[C@@H]4C[C@@H](O)CC[C@]4(C)[C@H]3CC[C@]12C [Comp. I-ao, (E,E)-17β-[3-(2-Dimethylaminoethoxyimino)-2-ethyl-1-propenyl]-5β-androstane-3β,14β-diol] | – | 501 nM | – | 126 nM |
| CCC(/C=N/OCCCN(C)C)=C\[C@H]1CC[C@]2(O)[C@@H]3CC[C@@H]4C[C@@H](O)CC[C@]4(C)[C@H]3CC[C@]12C [Comp. I-ap, (E,E)-17β-[3-(3-Dimethylaminopropoxyimino)-2-ethyl-1-propenyl]-5β-androstane-3β,14β-diol] | – | 631 nM | – | 200 nM |
| CC(/C=N/NC(=N)N)=C\[C@@]1(O)CC[C@]2(O)[C@@H]3CC[C@@H]4C[C@@H](O)CC[C@]4(C)[C@H]3CC[C@]12C [Comp. I-aq, (E,E)-17β-(3-Guanidinoimino-2-methyl-1-propenyl]-5β-androstane-3β,14β,17α-triol] | 398 nM | – | 3980 nM | – |
| CC(/C=N/OCCN)=C\[C@@]1(O)CC[C@]2(O)[C@@H]3CC[C@@H]4C[C@@H](O)CC[C@]4(C)[C@H]3CC[C@]12C [Comp. I-ar, (E,E)-17β-[3-(2-Aminoethoxyimino)-2-methyl-1-propenyl]-5β-androstane-3β,14β,17α-triol] | 316 nM | – | 2510 nM | – |
| CC(/C=N/OCCN(C)C)=C\[C@@]1(O)CC[C@]2(O)[C@@H]3CC[C@@H]4C[C@@H](O)CC[C@]4(C)[C@H]3CC[C@]12C [Comp. I-as, (E,E)-17β-[3-(2-Dimethylaminoethoxyimino)-2-methyl-1-propenyl]-5β-androstane-3β,14β,17α-triol] | 398 nM | – | 3160 nM | – |
| CC(/C=N/NC(=N)N)=C\[C@H]1CC[C@]2(O)[C@@H]3CC[C@@H]4C[C@@H](OCCN5CCCC5)CC[C@]4(C)[C@H]3CC[C@]12C [Comp. I-at, (E,E)-36-[2-(1-Pyrrolidinyl)ethoxy]-17β-(3-guanidinoimino-2-methyl-1-propenyl]-5β-androstane-14β-ol] | – | 158 nM | – | 39.8 nM |
| CC(/C=N/OCCN)=C\[C@H]1CC[C@]2(O)[C@@H]3CC[C@@H]4C[C@@H](OCCN5CCCC5)CC[C@]4(C)[C@H]3CC[C@]12C [Comp. I-au] | 20 nM | 39.8 nM | – | – |
| CC(/C=N/NC(=N)N)=C\[C@H]1CC[C@]2(O)[C@@H]3CC[C@@H]4C[C@@H](OCCCN5CCCC5)CC[C@]4(C)[C@H]3CC[C@]12C [Comp. I-av] | – | 200 nM | – | 50.1 nM |
| CC(/C=N/OCCN)=C\[C@H]1CC[C@]2(O)[C@@H]3CC[C@@H]4C[C@@H](OCC(C)N5CCCC5)CC[C@]4(C)[C@H]3CC[C@]12C (stereo partly drawn) [Comp. I-aw, (E,E)-3β-[2-(1-Pyrrolidinyl)propoxy]-17β-[3-(2-aminoethoxyimino)-2-methyl-1-propenyl]-5β-androstane-14β-ol] | 25.1 nM | 63.1 nM | – | – |
| CC(/C=N/OCCN)=C\[C@H]1CC[C@]2(O)[C@@H]3CC[C@@H]4C[C@@H](OCCN)CC[C@]4(C)[C@H]3CC[C@]12C [Comp. I-ay, (E,E)-3β-(2-Aminoethoxy)-17β-[3-(2-aminoethoxyimino)-2-methyl-1-propenyl]-5β-androstane-14β-ol] | 25.1 nM | 31.6 nM | – | – |
| CC(/C=N/NC(=N)N)=C\[C@H]1CC[C@]2(O)[C@@H]3CC[C@@H]4C[C@@H](OCCCN)CC[C@]4(C)[C@H]3CC[C@]12C [Comp. I-az] | 25.1 nM | 31.6 nM | – | – |

Source: patent US5705662A, “17-(3-imino-2-alkylpropenyl)-5β, 14β-androstane derivatives active on the cardiovascular system, processes for their preparation and pharmaceutical compositions containing same” (Sigma-Tau Industrie Farmaceutiche Riunite S.p.A., priority 1994, dated 1998)
